{
  "source": "patent US11253527B2",
  "about": "“Method and composition for inhibiting virus infection” (priority 2019, dated 2022)",
  "key": {"HSV-1 virions": {"test_system": "HSV-1 virions", "assay": "Direct effect on infectivity of purified HSV-1 virions, plaque assay", "assay_type": "cell-based, Herpes simplex virus type 1", "settings": "purified virions incubated directly with drug 1 hour at 37° C., dose-dependent", "procedure": "Purified HSV-1 was incubated directly with media containing various concentrations of each Antrodia camphorata extracts for 1 hour at 37° C. The viral titers were then examined in oral epithelial cells (OC3) using the plaque assay. The results shown are the mean±SEM from at least three independent experiments. Statistical differences are shown by different lowercase letters (analysis of variance, Tukey, α=0.05).\n(§1) The oral epithelial cell line (OC3) was used to determine the possible effects of Antrodia camphorata extracts on oral epithelial cells during HSV-1 infection. Cell monolayers were treated as illustrated in FIG. 4 (please also see details in the Materials and Methods section). Three experimental conditions, including no-treatment, pre-treatment and post-treatment were performed. Whether these Antrodia camphorata extracts have effects before or after viral infection were examined. The effects of Antrodia camphorata extracts on viral propagation (viral yields) in infected oral epithelial cells were examined. At 19-20 h post infection, viral yields in the supernatants were determined using the plaque assay. Viability of treated cells was also determined using the MTT assay for the mitochondrial dehydrogenase activity. Moreover, purified HSV-1 virions were directly treated with Antrodia camphorata extracts to examine whether Antrodia camphorata extracts exert anti-HSV-1 activity directly on virus particles before viral entry.\nOral epithelial cells (OC3 cells) were infected with HSV-1 at multiplicity of infection (MOI) of 5 or mock infected for 1 h at 37° C. for viral entry to occur. Unbound viruses were removed. Infected cells were then overlaid with appropriate media and incubated at 37° C. The Antrodia camphorata fruit body extracts used were A2 (Antrodia camphorata extracts), A3 (dehydrosulphurenic acid), A4 (antcin K), A5 (versisponic acid), and A6 (dehydroeburicoic acid). […]\nViral titers in the supernatants after infection were determined using the plaque assay. […] Plaques were observed and counted under an inverted microscope. […]"}, "[1]": {"test_system": "Oral epithelial cells (OC3)", "assay": "MTT cell viability of mock- or HSV-1-infected oral epithelial cells (OC3)", "assay_type": "cell-based", "procedure": "(§2) FIG. 4 provides Experimental conditions for evaluation of the effects of Antrodia camphorata fruit body extracts on oral epithelial cells during HSV-1 infection. Three experimental conditions, including no-treatment, pre-treatment and post-treatment were performed. Oral epithelial cells (OC3) were pre-treated with media only or media containing each Antrodia camphorata extracts for 2 hours, followed by HSV-1 inoculation. Cells were infected with HSV-1 viruses at multiplicity of infection (MOI) of 5 or mock infected for 1 hour at 37° C. for viral entry to occur. Antrodia camphorata extracts were not added during viral inoculation for 1 hour to avoid of its direct effects on virions. Mock- or HSV-1-infected cells were further incubated in the absence or presence of the drug for 19 hours.\nas §1, with “entry. […]” for “entry.”\nThe mitochondrial dehydrogenase activity of treated cells was evaluated using the FBS-free medium containing 1 mg/ml of 3-[4,5-dimethylthiazol-2-yl]-2,5 diphenyltetrazolium bromide (MTT). […]"}, "[2]": {"test_system": "HuS-E/2 immortalized human primary hepatocytes cells", "assay": "MTT cell viability, HuS-E/2 cells", "settings": "48 h, 50 μg/ml"}, "HepG2.2.15 cells": {"test_system": "HepG2.2.15 cells", "assay": "MTT cell viability, HepG2.2.15 cells", "settings": "48 h, 50 μg/ml"}, "HSV-1 virus (KOS strain)": {"test_system": "HSV-1 virus (KOS strain)", "assay": "HSV-1 viral yields in supernatants of OC3 cells, plaque assay", "assay_type": "cell-based, Herpes simplex virus type 1", "procedure": "as §2, §1\nHSV-1 virus (KOS strain) from the extra-cellular fluid of infected Vero cells was purified using sucrose-gradient. Purified viruses were stored frozen in small aliquots. Purified viruses were titered using the plaque assay.\nOral epithelial cells (OC3 cells) were infected with HSV-1 at multiplicity of infection (MOI) of 5 or mock infected for 1 h at 37° C. for viral entry to occur. Unbound viruses were removed. Infected cells were then overlaid with appropriate media and incubated at 37° C. The Antrodia camphorata fruit body extracts used were A2 (Antrodia camphorata extracts), A3 (dehydrosulphurenic acid), A4 (antcin K), A5 (versisponic acid), and A6 (dehydroeburicoic acid). For the effects of Antrodia camphorata fruit body extracts, oral cells were treated in three different experimental conditions (FIG. 1): (1) no treatment, (2) pre-treatment with each Antrodia camphorata fruit body extracts before infection and (3) post-treatment with each Antrodia camphorata fruit body extracts after infection. Purified HSV-1 virions were also incubated directly with media only or media containing Antrodia camphorata fruit body extracts. The viral infectivity of treated virions was then examined using the plaque assay.\nViral titers in the supernatants after infection were determined using the plaque assay. Cells were grown to confluence and infected with tenfold serial dilution of the samples. Cells were then overlaid with medium containing 3% carboxymethylcellulose to prevent the formation of secondary plaques. Cells were incubated until well-defined clear plaques were formed. Cells were fixed with 3.7% formaldehyde and stained with crystal violet. Plaques were observed and counted under an inverted microscope. The viral yield of the media-pretreated HSV-1 infected control was considered to be 100%."}},
  "data": [
    {"smiles": "C=C(CC[C@@H](C)[C@H]1CC[C@H]2C3=C(C(=O)C[C@]12C)[C@@]1(C)CCC(O)[C@](C)(O)C1CC3O)C(C)C(=O)O", "note": "(stereo partly shown) [A4, antcin K]", "values": [
      {"measurement": "viral infectivity of treated HSV-1 virions", "setting": "HSV-1 virions", "value": "statistically significantly inhibited"},
      {"measurement": "viability of mock-infected cells or HSV-1 infected cells", "setting": "[1]", "value": "not affected evidently"},
      {"measurement": "toxic effect (MTT cell viability)", "setting": "[2]", "value": "no toxic effect"},
      {"measurement": "toxic effect (MTT cell viability)", "setting": "HepG2.2.15 cells", "value": "little or no toxic effect"},
      {"measurement": "viral yields in the supernatants, post-treatment", "setting": "HSV-1 virus (KOS strain); OC3 cells post-treated after HSV-1 infection (MOI 5), 19 hours", "value": "significantly reduced"},
      {"measurement": "viral yields in the supernatants, pre-treatment", "setting": "HSV-1 virus (KOS strain); OC3 cells pre-treated 2 hours before HSV-1 infection (MOI 5)", "value": "little effects"},
      {"measurement": "viral yield reduced to", "setting": "HSV-1 virus (KOS strain); infected OC3 cells post-treated with 100 μg/ml, media control = 100%", "value": 19, "unit": "%"}
    ]}
  ]
}
